Reference: US11833160B2, “Ursodeoxycholic acid derivatives as HDAC inhibitors for the treatment of polycystic diseases” (UNIVERSIDAD DEL PAIS VASCO/EUSKAL HERRIKO UNIBERTSITATEA, priority 2017, dated 2023)

How the values were obtained:
[1] = test system: polycystic human cholangiocytes; assay: Intracellular Ca^2+ measurement (Fluo-4 AM); format: cell-based
Source text: As described previously [Banales J M et al. Hepatology 2009; Perugorria M J et al. Nature Reviews G&H; Munoz-Garrido P et al. Journal of Hepatology 2015], polycystic (human and rat) cholangiocytes are characterized by a decrease in intracellular Ca^2+ levels, which promotes their proliferation. Furthermore, it has been proven that chronic treatment with UDCA is capable of partially inhibiting the proliferation of polycystic human cholangiocytes through the normalization of intracellular Ca^2+ levels in experimental models [Munoz-Garrido P et al. Journal of Hepatology 2015] and patients [D'Agnolo H M A, et al. Journal of Hepatology 2016] with PLD. […] To that end, the “Fluo-4 AM” (Thermo Fisher Scientific) intracellular Ca^2+ measurement method was used. A Ca^2+ ionophore (i.e., A23187, Sigma) was used as positive control.

OCT1 = molecular target: T1, OCT1 (Homo sapiens, UniProt O15245); assay: Uptake study in HepG2 cells overexpressing OCT1; format: in vitro ADME
T1 construct: expressed in transfected cells; host or cells: HepG2 cells
T1 sequence (O15245 1-554): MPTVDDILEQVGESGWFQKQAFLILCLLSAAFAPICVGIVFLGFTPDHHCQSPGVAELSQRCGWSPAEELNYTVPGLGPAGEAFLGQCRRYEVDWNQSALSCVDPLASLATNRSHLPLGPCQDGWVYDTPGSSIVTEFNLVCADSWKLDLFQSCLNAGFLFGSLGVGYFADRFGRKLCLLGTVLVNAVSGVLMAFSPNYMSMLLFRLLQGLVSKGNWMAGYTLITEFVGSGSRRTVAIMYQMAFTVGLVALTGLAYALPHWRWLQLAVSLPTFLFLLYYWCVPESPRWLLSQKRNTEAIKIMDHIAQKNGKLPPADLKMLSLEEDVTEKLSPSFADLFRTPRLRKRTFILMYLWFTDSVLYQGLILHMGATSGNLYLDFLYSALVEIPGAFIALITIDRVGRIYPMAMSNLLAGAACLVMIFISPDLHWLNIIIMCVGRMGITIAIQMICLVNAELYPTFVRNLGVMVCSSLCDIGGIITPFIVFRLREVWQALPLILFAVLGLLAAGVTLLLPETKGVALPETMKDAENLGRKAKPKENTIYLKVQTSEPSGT
Source text: The bile acid and organic cation transporters expressed in hepatocytes and cholangiocytes were overexpressed in HepG2 cells (OCT1) and CHO cells (OCT3). The efficacy of the process was confirmed by means of measuring the abundance of mRNA (qPCR), protein (WB), and the correct insertion in the plasma membrane (immunofluorescence). The uptake studies included comparing the uptake efficiency of the compound with respect to dihydroethidium (DHE) in the case of OCT3, and sorafenib in the case of OCT1 (positive controls), as well as the sensitivity of the process to substrate inhibition induced by the joint administration of the compound and quinine. The cell content of all the compounds was determined by means of triple quadrupole HPLC-MS/MS after extraction thereof from the cell system used in each case.

OATP1B1 = molecular target: T2, OATP1B1 (Homo sapiens, UniProt Q9Y6L6); assay: Uptake study, transporter OATP1B1 (data not shown); format: in vitro ADME
T2 construct: expressed in transfected cells
T2 sequence (Q9Y6L6 1-691): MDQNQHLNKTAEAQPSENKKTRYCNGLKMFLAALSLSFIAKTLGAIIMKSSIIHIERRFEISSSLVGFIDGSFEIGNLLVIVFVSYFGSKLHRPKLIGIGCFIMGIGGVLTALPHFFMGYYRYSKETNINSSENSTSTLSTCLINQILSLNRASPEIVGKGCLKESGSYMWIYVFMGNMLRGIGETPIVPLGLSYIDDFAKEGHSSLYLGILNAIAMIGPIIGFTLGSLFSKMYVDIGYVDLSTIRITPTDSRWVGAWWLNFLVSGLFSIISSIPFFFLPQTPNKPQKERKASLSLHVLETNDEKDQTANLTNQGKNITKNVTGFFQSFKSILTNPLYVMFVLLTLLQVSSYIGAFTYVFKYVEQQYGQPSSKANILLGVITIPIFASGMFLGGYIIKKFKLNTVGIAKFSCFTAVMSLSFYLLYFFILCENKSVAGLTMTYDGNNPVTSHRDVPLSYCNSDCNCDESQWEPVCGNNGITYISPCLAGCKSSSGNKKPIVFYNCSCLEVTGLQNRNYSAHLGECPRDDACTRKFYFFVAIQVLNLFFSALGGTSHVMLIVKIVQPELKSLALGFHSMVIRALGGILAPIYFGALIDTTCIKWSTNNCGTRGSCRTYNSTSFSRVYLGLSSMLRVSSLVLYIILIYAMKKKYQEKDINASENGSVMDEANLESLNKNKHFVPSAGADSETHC

[2] = test system: α-acetylated-tubulin in polycystic human cholangiocytes; assay: Immunoblot of α-acetylated-tubulin; format: cell-based; conditions: different doses
Description: The expression of α-acetylated-tubulin (Ac-α-tubulin) and lysine 9-acetylated histone 3 (Ac-H3K9) in polycystic human cholangiocytes in culture was analyzed using Ac-α-tubulin-specific primary antibodies (1:2000, Sigma-Aldrich) and H3K9-specific primary antibodies (1:500, Cell Signaling Technology) and a peroxidase-conjugated secondary antibody (1:5000, Sigma-Aldrich). The expression of each protein was quantified using a chemiluminescence system (Amersham, GE Healthcare). The GAPDH protein was used as loading control.

PCK rats = assay: Chronic treatment of PCK rats (animal model of PLD), liver transaminase ALT; format: in vivo, rat; conditions: 7 mg/kg/day, 2 months
Description: PCK rats were chronically treated (2 months) with compound Ia (7 mg/kg/day).

Compound | intracellular Ca^2+ levels [1] | melting point | effect of quinine (OCT1 inhibitor) on the OCT1 transport (OCT1; joint administration with quinine) | transport through OCT1 (OCT1; liver cells (HepG2 overexpressing OCT1), HPLC-MS/MS cell content) | transport through OATP1B1 (OATP1B1) | expression of α-acetylated-tubulin [2] | levels of liver transaminase ALT (PCK rats)
C[C@H](CCC(=O)NCC(=O)NCc1ccc(C(=O)NO)cc1)[C@H]1CC[C@H]2[C@@H]3[C@@H](O)C[C@@H]4C[C@H](O)CC[C@]4(C)[C@H]3CC[C@]12C [Ib, 4-((2-((R)-4 ((3R,5S,7S,8R,9S,10S,13R,14S,17R)-3,7-dihydroxy-10,13-dimethylhexadecahydro-1H-cyclopenta[a]phenanthren-17-yl)pentanamide)acetamido)methyl)-N-hydroxybenzamide] | increasing intracellular Ca^2+ levels | 153 to 155 °C |  |  |  |  | 
C[C@H](CCC(=O)NCc1ccc(C(=O)NO)cc1)[C@H]1CC[C@H]2[C@@H]3[C@@H](O)C[C@@H]4C[C@H](O)CC[C@]4(C)[C@H]3CC[C@]12C [Compound Ia] | increasing intracellular Ca^2+ levels |  | inhibited by the presence of quinine | specifically transported through OCT1 | not through ASBT or OATP1B1 | increases significantly and in a dose-dependent manner | significantly reduced
